Reference: the Biogen ADME set (Fang et al. 2023)
Converted amounts (≈) assume the structure as drawn.

Conditions: for aqueous solubility: pH 6.8

| SMILES | MDR1-MDCK efflux ratio | intrinsic clearance, human liver microsomes [mL/min/kg] | intrinsic clearance, rat liver microsomes [mL/min/kg] | aqueous solubility [µg/mL] |
| --- | --- | --- | --- | --- |
| Cc1nc2cc(NC(=O)CCc3c(C)noc3C)ccc2o1 | 4.62 | ≤ 4.74 | 78.5 | 39.1 (≈ 131 µM) |
| CC1CCC(NC(=O)c2oc3ccccc3c2CS(C)=O)CC1 (configuration not stated) | 2.52 | 15.2 | 154 | 68.8 (≈ 206 µM) |
| CC(=O)c1c(C)n(S(=O)(=O)c2ccc(C)cc2)c2ccc(NS(=O)(=O)c3ccc(C)cc3)cc12 |  |  |  | 0.53 (≈ 1.07 µM) |
| CNC(=O)Cn1ccc2cc(OC)ccc21 | 0.664 | ≤ 4.74 | 99.9 | 39.9 (≈ 183 µM) |
| O=C(NCCc1ccc(O)c(O)c1)Nc1ccccn1 |  | ≤ 4.74 | 149 | 47.5 (≈ 174 µM) |
| N#CCCn1ncnc1-c1cccc(C#N)c1 |  | ≤ 4.74 | ≤ 10.7 |  |
| CCN1C(=O)CC[C@H](C(=O)N2CCc3cc(F)cc(C)c3C2)[C@H]1c1ccncc1 | 51.4 | 185 | 473 | 70.2 (≈ 178 µM) |
| CC(=O)N1CCc2cc(Nc3nccc(C(F)(F)F)n3)ccc21 |  | 130 | 271 | 1.2 (≈ 3.72 µM) |
| COc1nc2c(cc1CNC(=O)N1CCC[C@@H]1CO)C(=O)N(C1CCCC1)C2 | 78.1 | 8.55 | 69.1 |  |
| Cc1ccnc(N2CC(O)(c3ccc(F)cc3)C2)c1C#N | 0.696 | 99.1 | 3630 |  |
| CCCN(CCC1=CCCCC1)C(=O)c1cc(C(F)F)n[nH]1 | 0.395 | 65.9 | 1990 |  |
| Cc1cc(NC(=O)c2ccc(Cl)cc2F)no1 |  |  |  | 7 (≈ 27.5 µM) |
| CC(=O)N(C)[C@H]1CC2(CCN(C(=O)COc3ccc(F)cc3F)CC2)OC[C@]1(C)O | 14.9 | ≤ 4.74 | 15.4 |  |
| CCOc1ccc2c(c1)cc(CN1CCSCC1)c1nn(C)c(=O)n12 |  | 88.1 | 604 |  |
| CC(C)c1ccc(NC(=O)c2ccc3nccnc3c2)cc1 |  | 29.1 | 608 | 4.96 (≈ 17 µM) |
| CC(=O)c1cnc2ccc(-c3cc(Cl)c(O)c(Cl)c3)nc2c1N[C@H]1CC[C@H](CN(C)C)CC1 | 21.9 |  |  | 0.3 (≈ 0.615 µM) |
| N#Cc1ccc(OCCn2cccn2)cc1 | 0.584 | 6.93 | ≤ 10.7 | 39.8 (≈ 187 µM) |
| Cc1nc2cc(C(=O)N3CCc4nc5ccccc5c(=O)n4CC3)ccc2n1C |  | ≤ 4.74 | 24.7 | 67.3 (≈ 174 µM) |
| O[C@H]1CC[C@H](Nc2ncc3nc(Nc4c(F)cc(F)cc4F)n([C@H]4CCOC4)c3n2)CC1 | 93.4 | ≤ 4.74 | 10.9 |  |
| c1ccc(Cc2n[nH]c(CSc3ccccc3)n2)cc1 | 0.734 | 89.2 | 1320 | 16.8 (≈ 59.8 µM) |
| CC(=O)c1ccc2c(c1)CCN(CCC1OCCO1)CC2 | 0.527 | 8.3 | 56.2 |  |
| CN(Cc1ccccc1)C(=O)c1ccc(-n2cccn2)nc1 | 0.566 | ≤ 4.74 | 4990 | 38.8 (≈ 133 µM) |
| O=C(CCNc1ncccn1)N1CCc2ccccc2C1 | 1.23 | 24.8 | 146 | 35.1 (≈ 124 µM) |
| COC(C)(C)C(=O)Nc1ccnc(C(C)(C)C)n1 | 0.599 | 10.9 | 106 |  |
| CC(=O)N1CC[C@H]2O[C@H]3c4ccc(O[C@@H]5O[C@H](CO)[C@@H](O[C@@H]6O[C@H](CO)[C@H](O)[C@H](O)[C@H]6O)[C@H](O)[C@H]5O)cc4OC(C)(C)[C@@H]3C[C@H]2C1 | 0.675 | ≤ 4.74 | ≤ 10.7 |  |
| CC1(COc2ccc3c(c2)ncn3-c2ccc3cccc(N4CCC(N)CC4)c3n2)COC1 |  | 57.1 | 196 | 32.8 (≈ 74 µM) |
| Cc1cccc(NC(=O)CSc2nncs2)c1 | 0.51 | 22.6 | 278 |  |
| Cc1ccc2c(c1)c1nc3ccccc3nc1n2CC(N)=O | 0.833 |  |  | 0.16 (≈ 0.551 µM) |
| COc1c(C)cnc(CN(C)S(N)(=O)=O)c1C | 1.91 | ≤ 4.74 | 82 | 30.6 (≈ 118 µM) |
| Cc1ccc(C(=O)Nc2cccc(C(=O)N(C)C)c2)cn1 | 23.2 | ≤ 4.74 | ≤ 10.7 | 45.3 (≈ 160 µM) |
